“Also recorded” adds a separate entry of the source. Like-named read-outs stand apart in the source and are kept apart here.
Key:
[1] = target: T1, human CAR (hCAR) (Homo sapiens, UniProt Q14994)
T1 sequence (Q14994 1-348 isoform Q14994-2): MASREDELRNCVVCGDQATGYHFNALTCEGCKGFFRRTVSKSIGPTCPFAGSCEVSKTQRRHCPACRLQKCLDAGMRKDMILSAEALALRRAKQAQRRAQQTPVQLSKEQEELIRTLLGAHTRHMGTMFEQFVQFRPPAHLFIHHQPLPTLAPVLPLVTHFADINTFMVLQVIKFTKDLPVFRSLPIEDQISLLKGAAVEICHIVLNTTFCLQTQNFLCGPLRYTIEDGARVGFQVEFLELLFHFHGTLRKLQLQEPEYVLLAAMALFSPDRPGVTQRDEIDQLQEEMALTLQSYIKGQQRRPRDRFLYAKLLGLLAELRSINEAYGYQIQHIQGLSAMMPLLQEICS
Description: (§2) The pEF6/V5-hCAR expression plasmid and the pGL4.17[luc2/Neo]-CYP2B6-2.2kb construct containing both the PBREM and XREM[40], were co-transfected in HepG2 cells using lipofectamine 2000 reagents (Life Technologies) following the manufacturer’s instruction. Dulbecco’s Modified Eagle Medium (DMEM) containing 10% FBS, 100 U/ml penicillin, 100 μg/ml streptomycin, G418 (0.6-1 mg/ml) and blasticidin (10 μg/ml) were used for the selection of colonies containing a mixed population of drug resistant cells. Subsequently, these cells were transferred to collagen-coated 48-well plates and continually cultured in the same media. Single colony containing both plasmids was selected and functionally verified.
(§3) The generated stable cell line, namely HepG2-CYP2B6-hCAR, was used to identify hCAR modulators in a qHTS platform. Assays were run in both agonist and antagonist modes. In brief, HepG2-CYP2B6-hCAR cells were dispensed at 2,500 cells/well in 1,536-well plates (Greiner Bio-One North America, Monroe, NC) using a Multidrop Combi (Thermo Fisher Scientific Inc., Waltham, MA). […] The assays were incubated at 37 °C for 24 h followed by the addition of 4 μl of the ONE-Glo luciferase reagent (Promega, Madision, WI). The assay plates were incubated at room temperature for 20 min and luminescence intensity was quantified using a ViewLux plate reader (PerkinElmer, Shelton, CT).
(§4) Concentration-response titration points for each compound were then fitted to the Hill equation, yielding half-maximal inhibition (IC50) or activation (EC50) and maximal response (efficacy) values. Compounds from the primary qHTS screen were classified into four major curve classes according to quality of curve fit, potency and efficacy. Class 1.1, 1.2, 2.1, and 2.2 curves were high-quality and thus high-confidence concentration-response curves (CRCs). […] All other curve classes (including those curves with single point activity) were deemed inconclusive. […] Follow-up studies were performed using a new aliquot of samples to confirm sample integrity and assay reproducibility.
(§5) All of these compounds were retested in both HepG2-CYP2B6-hCAR and cell viability assays.

[2] = test system: CYP3A4; assay: CYP3A4 mRNA expression in HPH (real-time PCR); format: cell-based, human; conditions: for Effect on CYP3A4 mRNA expression: HPH, 24 h, vs vehicle control (0.1% DMSO)
Description: (§6) HPH were isolated from human liver specimens by a modification of the two-step collagenase digestion method as described previously[43] or obtained from Bioreclamation In Vitro Technologies (Baltimore, MD). Fresh HPH were seeded at 1.5 × 10^6, 7.5 × 10^5 or 4.7 × 10^4 cells/well in 6-well, 12-well, or 96-well collagen coated plates, respectively. Hepatocytes were cultured for 36 h at 37 °C before treatment with specified compounds for another 24 or 72 h for detection of mRNA or protein expression in the 6-well and 12-well plates.
(§7) Total RNA was isolated from treated hepatocytes using the TRIzol® reagent and reverse transcribed using a High Capacity cDNA Archive Kit (Applied Biosystems, Foster City, CA) following the manufacturers’ instructions. CYP2B6 and CYP3A4 mRNA expression were normalized against that of GAPDH. Real-time PCR assays were performed in 96-well optical plates on an ABI Prism 7000 Sequence Detection System with SYBR Green PCR Master Mix. […] Induction values were calculated using the equation: Fold = 2ΔΔCt, where ΔCt represents the differences in cycle threshold numbers between CYP2B6 or CYP3A4 and GAPDH, and ΔΔCt represents the relative change in these differences between control and treatment groups.

[3] = Cell viability assay (CellTiter-Glo ATP quantitation); format: cell-based, human; set-up: key to Cytotoxicity (activity call): Inactive: considered inactive if efficacy is less than 30%; conditions: human, HepG2-CYP2B6-hCAR cells, read-out: Cytotoxicity Potency
Description: (§1) The potential cytotoxicity of the NPC compounds in HepG2-CYP2B6-hCAR cells was measured using a luciferase-coupled ATP quantitation assay (CellTiter-Glo viability assay, Promega). The change of intracellular ATP content indicates the number of metabolically competent cells. The cells were seeded at 2,500 cells/5 μl in 1536-well plates and were exposed to each test compound at concentrations and treatment duration as previously mentioned. The assay plates were incubated for 24 h at 37 °C, followed by the addition of 4 μl/well of CellTiter-Glo reagent. After 30 min incubation at RT, the luminescence intensity of the plates was measured using a ViewLux plate reader.

[4] = test system: HepG2-CYP2B6-hCAR cells; assay: as above; format: cell-based, human; set-up: key to Cytotoxicity (activity call): Inactive: considered inactive if efficacy is less than 30%; conditions: 24 h
Description: as §1

[5] = test system: CYP2B6; assay: CYP2B6 mRNA expression in HPH (real-time PCR); conditions: for Effect on CYP2B6 mRNA expression / Induction of hCAR target genes: HPH; for Effect on CYP2B6 mRNA expression: 24 h, vs vehicle control (0.1% DMSO); for Induction of hCAR target genes: target genes CYP2B6 and CYP3A4
Description: as §6, §7

[6] = test system: human primary hepatocytes; assay: MTT cytotoxicity assay in HPH; format: cell-based; conditions: 1 μM, 24 hours, donor HL-104
Description: Figure S1. […] Human primary
was carried out following the manufacturer’s instruction. Data represent the mean ± SD (n =3).
(1 picture or pasted object on this page, not shown here)

[7] = target: T1, human CAR (hCAR); assay: hCAR luciferase reporter qHTS, antagonist mode (HepG2-CYP2B6-hCAR cells, CITCO co-treatment); conditions: antagonist mode;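 also: stable HepG2 line carrying hCAR plus a CYP2B6 promoter (PBREM/XREM) luciferase reporter, 1536-well format, 24 h compound exposure at 37 °C, then luminescence read with ONE-Glo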
Description: as §2, §3, §4, §5

[8] = target: T2, hPXR (Homo sapiens, UniProt O75469); assay: Transient hPXR luciferase assay in HepG2 cells (CYP2B6-2.2 kb reporter); format: cell-based
T2 construct: expressed in transfected cells; host or cells: HepG2 (transient transfection)
T2 sequence (O75469 1-434): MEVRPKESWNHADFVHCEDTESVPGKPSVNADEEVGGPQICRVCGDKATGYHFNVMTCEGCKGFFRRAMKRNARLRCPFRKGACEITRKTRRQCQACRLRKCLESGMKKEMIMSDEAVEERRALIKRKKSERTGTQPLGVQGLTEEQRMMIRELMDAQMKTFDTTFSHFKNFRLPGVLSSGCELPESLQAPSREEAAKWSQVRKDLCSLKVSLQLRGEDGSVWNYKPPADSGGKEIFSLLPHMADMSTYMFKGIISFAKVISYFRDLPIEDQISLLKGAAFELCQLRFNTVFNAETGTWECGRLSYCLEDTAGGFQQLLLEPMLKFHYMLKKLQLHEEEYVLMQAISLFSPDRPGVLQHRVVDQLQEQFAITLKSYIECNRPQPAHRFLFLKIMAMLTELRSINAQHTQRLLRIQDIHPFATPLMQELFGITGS
Description: HepG2 cells cultured in a 24-well plate were co-transfected with the CYP2B6-2.2 kb reporter and hPXR expression vectors using a Lipofectamine® 2000 Transfection Kit (Life Technologies) following the manufacturer’s instruction. […] Cell lysates were assayed for firefly luciferase activities normalized against the activities of co-transfected Renilla luciferase using a Dual-Luciferase Kit (Promega). Data were represented as mean±SD of three individual transfections.

[9] = target: T1, human CAR (hCAR); assay: hCAR luciferase reporter qHTS, agonist mode (HepG2-CYP2B6-hCAR cells, PK11195 co-treatment); conditions: agonist mode; for Follow-up Confirmation Efficacy: relative to CITCO (100%); for Primary Screen Efficacy: relative to CITCO Emax (100%)
Description: (§8) The generated stable cell line, namely HepG2-CYP2B6-hCAR, was used to identify hCAR modulators in a qHTS platform. Assays were run in both agonist and antagonist modes. In brief, HepG2-CYP2B6-hCAR cells were dispensed at 2,500 cells/well in 1,536-well plates (Greiner Bio-One North America, Monroe, NC) using a Multidrop Combi (Thermo Fisher Scientific Inc., Waltham, MA). […] Each NPC compound was tested at 8 concentrations ranging from 0.6 nM to 38.3 μM. The assays were incubated at 37 °C for 24 h followed by the addition of 4 μl of the ONE-Glo luciferase reagent (Promega, Madision, WI). The assay plates were incubated at room temperature for 20 min and luminescence intensity was quantified using a ViewLux plate reader (PerkinElmer, Shelton, CT).
as §4
(§9) These compounds were prepared in 1536-well compound plates at 11-point 3-fold dilution titrations in DMSO, with final concentrations ranging from 0.6 nM to 38.3 μM. All of these compounds were retested in both HepG2-CYP2B6-hCAR and cell viability assays.

[10] = test system: CAR, CYP2B6, or CYP3A4; conditions: previously known; reference not given; cited from earlier work
[11] = test system: CYP2B6 and CYP3A4 proteins; assay: Immunoblotting of CYP2B6 and CYP3A4 proteins in HPH; format: cell-based, human; conditions: immunoblotting (Fig. 3C)
Description: Homogenate proteins (30 μg) from treated HPH were resolved on an SDS polyacrylamide gel and electrophoretically transferred onto Immobilon-P polyvinylidene difluoride membranes and blocked using 5% blotting-grade blocker (nonfat dry milk, Bio-RAD). Subsequently, membranes were incubated with specific antibodies against CYP2B6 (1:200), CYP3A4 (1:5000), and β-actin (1:50,000) diluted in 1% blotting-grade blocker. β-Actin was used to normalize protein loadings. Membranes were washed using 1x Tris buffered saline–Tween 20 (Bio-RAD) and incubated with horseradish peroxidase goat anti-rabbit IgG antibody diluted at 1:5000, and developed using ECL Western blotting detection reagent (Thermo-Scientific Inc).

[12] = target: T1, human CAR (hCAR); remark: listed apart in the source
Description: as §8, §4, §9

[13] = target: T3, EYFP-hCAR (Homo sapiens, UniProt Q14994); assay: Nuclear translocation of Ad/EYFP-hCAR in human primary hepatocytes; format: cell-based; conditions: HPH
T3 construct: expressed in transfected cells; host or cells: human primary hepatocytes infected with Ad/EYFP-hCAR
T3 sequence (Q14994 1-348 isoform Q14994-2): T1 sequence (Q14994 1-348 isoform Q14994-2)
Description: A recombinant adenovirus expressing enhanced yellow fluorescent protein-tagged hCAR (Ad/EYFP-hCAR) was generated as described previously. Hepatocytes cultured in 96-well collagen-coated plates in serum free Williams’ E medium were infected with Ad/EFYP-hCAR (1 μl/well) for 12 h before treatment with the vehicle control, DMSO (0.1%), PB (1 mM), and selected compounds for another 8 h. Subcellular localization of hCAR was visualized using a Nikon (Tokyo, Japan) C1-LU3 instrument based on an inverted Nikon Eclipse TE2000 microscope.

[14] = HPH donor HL-104, 24 h, daunorubicin 1, 2.5 and 5 µM, bortezomib 0.1, 0.5, and 1 µM
[15] = Follow-up Confirmation Potency (IC50), follow-up cherry-pick, 11-point titration
[16] = Primary Screen Potency (IC50), primary qHTS, 0.1 μM CITCO, 24 h
[17] = Follow-up Confirmation Potency (EC50), follow-up cherry-pick, 11-point titration
[18] = Primary Screen Potency (EC50), primary qHTS, 2.5 μM PK11195, 24 h

SMILES: CCCCc1ccc(O)cc1 [4-butylphenol]
- Identified as hCAR antagonist/deactivator in the qHTS [1]: recognized in the current study

SMILES: CC(C)C[C@H](NC(=O)[C@H](Cc1ccccc1)NC(=O)c1cnccn1)B(O)O [Bortezomib]
- Concentration-dependent effect on CYP3A4 mRNA expression [2, 14]: marked and concentration-dependent repression
- IC50 at 24 h [3]: 1.25 µM
- Cytotoxicity Efficacy [4]: -57%
- Concentration-dependent effect on CYP2B6 mRNA expression [5, 14]: marked and concentration-dependent repression
- Effect on CYP2B6 mRNA expression [5]: most potent repressors of CYP2B6
- Cytotoxicity in HPH (MTT) [6]: not associated with significant cytotoxicity
- IC50 [7, 15]: 0.03 µM
- IC50 [7, 16]: 0.02 µM
- Primary Screen Efficacy ([7]; primary qHTS, relative to PK11195 (100%)): -103%

SMILES: COc1cccc2c1C(=O)c1c(O)c3c(c(O)c1C2=O)C[C@@](O)(C(C)=O)C[C@@H]3O[C@H]1C[C@H](N)[C@H](O)[C@H](C)O1 [Daunorubicin]
- IC50 at 24 h [3]: 15.9 µM
- Cytotoxicity Efficacy [4]: -43%
- Effect on CYP2B6 mRNA expression [5]: most potent repressors of CYP2B6
- Effect on basal and RIF-induced PXR activity ([8]; HepG2, 24 h, in the presence or absence of rifampicin (10 μM)): only repressed RIF-induced PXR activity

SMILES: O=c1cc(-c2ccccc2)oc2ccccc12 [Flavone]
- Effect on CYP3A4 mRNA expression [2]: marginal effect; also recorded: only marginally increased
- EC50 [9, 17]: 32.4 µM
- EC50 [9, 18]: 34 µM
- Follow-up Confirmation Efficacy ([9]; follow-up cherry-pick): 200%
- Primary Screen Efficacy ([9]; primary qHTS): 184%
- Effect on CYP2B6 mRNA expression [5]: significantly induced; also recorded: markedly induced
- Known modulator of CAR, CYP2B6, or CYP3A4? [10]: Dietary flavonoids activate CAR
- hPXR activation ([8]; data not shown): moderately activated hPXR
- Induction of CYP2B6 and CYP3A4 at the protein level [11]: preferential induction of CYP2B6 over CYP3A4

SMILES: CC(C)=CCOc1c2occc2cc2ccc(=O)oc12 [Imperatorin]
- Effect on CYP3A4 mRNA expression [2]: marginal effect; also recorded: only marginally increased
- EC50 [9, 17]: 14 µM
- EC50 [9, 18]: 10.7 µM
- Known modulator of CAR, CYP2B6, or CYP3A4? [10]: Cyp2b10 inducer
- Follow-up Confirmation Efficacy [12]: 238%
- Primary Screen Efficacy [12]: 146%
- hPXR activation [8]: moderately activated hPXR
- Induction of CYP2B6 and CYP3A4 at the protein level [11]: preferential induction of CYP2B6 over CYP3A4

SMILES: C[C@@H]1O[C@@H](O[C@H]2C[C@@H](O)[C@]3(CO)[C@H]4[C@H](O)C[C@]5(C)[C@@H](C6=CC(=O)OC6)CC[C@]5(O)[C@@H]4CC[C@]3(O)C2)[C@H](O)[C@H](O)[C@H]1O [Ouabain]
- Cytotoxicity (activity call) [4]: Inactive
- Follow-up Confirmation Efficacy [1]: 0.47 (-99%)
- Primary Screen Efficacy [1]: 0.30 (-104%)
- IC50 [7, 15]: 0.47 µM
- IC50 [7, 16]: 0.3 µM

SMILES: NNCCc1ccccc1 [Phenelzine]
- EC50 [9, 17]: 15.9 µM
- EC50 [9, 18]: 15.1 µM
- Follow-up Confirmation Efficacy ([9]; follow-up cherry-pick): 70%
- Primary Screen Efficacy ([9]; primary qHTS): 145%
- Induction of hCAR target genes [5]: negligible induction
- Induction of hCAR target genes ([5]; listed as phenelzine): nor induced the expression of its target genes
- Known modulator of CAR, CYP2B6, or CYP3A4? [10]: CYP3A4 weak inhibitor
- hCAR nuclear translocation (in words) [13]: didn’t translocate hCAR
- hCAR nuclear translocation (in words) ([13]; listed as phenelzine): neither translocated hCAR

From paper PMC4438668, “Quantitative High-Throughput Identification of Drugs as Modulators of Human Constitutive Androstane Receptor” (Scientific Reports, 2015)
